pIC50: −log10 of the molar value.
Legend:
[1] = system: L-1210 leukemia cell suspensions; assay: Tumor cell survival (trypan blue), continuous exposure; assay type: cell-based, Mouse; conditions: for Percent Tumor Cell Survival / % tumor cell survival: L-1210; for Percent Tumor Cell Survival: treated 24 hr
[2] = system: B-16 melanoma cells; assay: Bioassay of tumorigenicity of in vitro treated tumor cells in syngeneic hosts; assay type: in vivo, C57BL/6 mice; conditions: for MEAN SURVIVAL TIME (MST) of recipients: control 28
Description: Suspensions of untreated and tripeptide treated MJY-alpha mammary tumor, B-16 melanoma, and L-1210 leukemia cells were adjusted to a concentration of 1×10^7 cells/ml based on the initial tumor cell concentration before the tripeptide exposure. Tumor cells were inoculated into syngeneic hosts at a concentration of 1×10^6 cells in […]. Female BALB/c/Crgl recipients of MJY-alpha mammary tumor cells and male C57BL/6/Jx hosts receiving B16 melanoma cells were inoculated subcutaneously; BDf1 mice were given intraperitoneal injections of L-1210 cells. Subcutaneous tumors were measured along their long and short axes every 1 to 3 days; tumor size is reported as the product of the two measurements (mm^2). The examination periods for mice receiving L-1210, MJY-alpha and B-16 tumor grafts were 45, 80, and 85 days, respectively. All mice were autopsied at the time of death or sacrifice.

[3] = system: L1210S; assay: cells; assay type: cell-based
[4] = system: B-16 melanoma cells; assay: Tumor cell survival after pulse treatment; assay type: cell-based, Mouse; conditions: for Percent Tumor Cell Survival: viability 24 hr later
Method: (§1) MJY-alpha mammary tumor cell layers were initiated at 2×10^5 cells/2 cm^2 well (Nuncion Multidish 4, Vangard International, Neptune, NJ) using cells spontaneously released into the medium from confluent 6-8 day old cell layers. B-16 melanoma cells obtained from 4-day-old cell confluent cultures by trypsinization with STV were plated at 2.2×10^5 cells/cm^2 well. These seeding densities yielded lightly confluent layers (2.3-2.6×10^5 cell/cm^2). following treatment the layers were rinsed twice and reincubated with growth media: media were changed daily until the cultures were terminated.
(§2) Survival of tumor cell layers or suspensions was ascertained using 0.5% trypan blue in 0.1M phosphate-buffered saline, pH 7.25. Cell layers were released from the Multidish-4 wells with 0.5 ml STV, diluted 2 to 10 fold with the vital strain; tumor cells in suspension cultures were directly mixed 1:1 with the trypan blue dye. Tumor cells were enumerated using a haemocytometer; all 10 fields were counted for every sample. Percent viable cells was determined by direct comparison of the numbers of cells excluding trypan blue in treated cultures to those in untreated or diluent-treated parallel cultures. There were no significant differences in the viability of cells treated with diluent when compared to untreated cells.
(§3) To delineate the minimum concentration and duration of the tripeptide compound exposure to induce cytolysis, MJY-alpha and B-16 melanoma cell layers and L-1210 leukemia cell suspensions were exposed to 0.5 to 50 ug of the tripeptide compound per ml of solvent for 0.25 to 4 hours. The tripeptide compound was then removed and the cells washed and reincubated in media growth. Tumor cell viability was determined 24 hrs after pulse tripeptide compound exposure. Cell survival of all three tumor cell lines was reduced by an exposure period of as short as 15 min (Table 4). The degree of cytolysis increased with extension of the treatment periods from 15 min to 4 hrs, although the decreases in cell survival were not proportional to the duration of the exposure. […] Comparison of the data in Tables 2 and 4 reveal that cells exposed to the tripeptide compound for one hour were irreversibly damaged when assayed a day later despite their apparent viability immediately after treatment.
(§4) The reversibility of the cancericidal activity of the tripeptide compounds on L-1210 leukemia, MJY-alpha mammary tumor and B-16 melanoma cells was also monitored in the nonhostile tissue culture environment. Cell suspensions of these tumor models were treated with tripeptide for 15 to 240 min, washed and either inoculated into mice or maintained as suspension (L-1210) or monolayer cultures (MJY-alpha and B-16). Reductions in tumor cells survival were negligible (0-6%) in all three tumor systems at initiation of in vitro cultures following treatment with 50 ug tripeptide/ml for as long as 4 hrs. However, significant decreases in cellular viabilities of L-1210 leukemia (FIG. 9), MJY-alpha mammary tumor (FIG. 10) and B-16 melanoma (FIG. 11) tumor cells were observed 24 hr following tripeptide exposure and for the next 6 days.

[5] = system: MJY-alpha mammary tumor cells; assay: Tumor cell survival after pulse treatment; assay type: cell-based, Mouse; conditions: for Percent Tumor Cell Survival: viability 24 hr later
Method: as §1, §2, §3, §4

[6] = system: L-1210 leukemia cells; assay: Bioassay of tumorigenicity of in vitro treated tumor cells in syngeneic hosts; assay type: in vivo; conditions: BDf1 mice surviving 45 days
[7] = 50 ug/ml for as long as 4 hrs (all three tumor systems)

Compound: CCOC(=O)[C@H](CCSC)NC(=O)[C@H](Cc1cccc(N(CCCl)CCCl)c1)NC(=O)[C@@H](N)Cc1ccc(F)cc1.Cl [PTT.119, 3-(p-fluorophenyl)-L-alanyl-3-[m-bis(2-chloroethyl)aminophenyl]-L-alanyl-L-methionine ethyl ester hydrochloride]
- Percent Tumor Cell Survival ([1]; 0.1 ug/ml): 82%
- % tumor cell survival ([1]; 1 ug/ml, 1 hr exposure): 95%
- % tumor cell survival ([1]; 1 ug/ml, 8 hr): 100%
- % tumor cell survival ([1]; 1 ug/ml, 24 hr): 65%
- Percent Tumor Cell Survival ([1]; 1 ug/ml): 70%
- % tumor cell survival ([1]; 5 ug/ml, 1 hr): 100%
- % tumor cell survival ([1]; 5 ug/ml, 4 hr): 84%
- % tumor cell survival ([1]; 5 ug/ml, 24 hr): 57%
- Percent Tumor Cell Survival ([1]; 5 ug/ml): 62%
- % tumor cell survival ([1]; 10 ug/ml, 1 hr): 92%
- % tumor cell survival ([1]; 10 ug/ml, 4 hr): 75%
- % tumor cell survival ([1]; 10 ug/ml, 24 hr): 12%
- Percent Tumor Cell Survival ([1]; 10 ug/ml): 28%
- % tumor cell survival ([1]; 25 ug/ml, 1 hr): 50%
- % tumor cell survival ([1]; 25 ug/ml, 4 hr): 25%
- % tumor cell survival ([1]; 25 ug/ml, 8 hr): 15%
- % tumor cell survival ([1]; 25 ug/ml, 24 hr): 0%
- Percent Tumor Cell Survival ([1]; 25 ug/ml): 6%
- decrease in leukemia cell survival ([1]; continuous 24 hr exposure, all concentrations tested (0.1 to 50 ug/ml)): 18-94%
- tumor growth in recipients ([2]; 10^6 B-16 cells treated with 25 ug or higher for 30 to 240 min): complete absence of tumor growth
- MEAN SURVIVAL TIME (MST) of recipients ([2]; B-16, 5 ug/ml, 60 min): 31 days
- MEAN SURVIVAL TIME (MST) of recipients ([2]; B-16, 5 ug/ml, 120 min): 33 days
- MEAN SURVIVAL TIME (MST) of recipients ([2]; B-16, 5 ug/ml, 240 min): 41 days
- MEAN SURVIVAL TIME (MST) of recipients ([2]; B-16, 10 ug/ml, 30 min): 35 days
- MEAN SURVIVAL TIME (MST) of recipients ([2]; B-16, 10 ug/ml, 60 min): 35 days
- MEAN SURVIVAL TIME (MST) of recipients ([2]; B-16, 10 ug/ml, 120 min): 35 days
- MEAN SURVIVAL TIME (MST) of recipients ([2]; B-16, 10 ug/ml, 240 min): 45 days
- MEAN SURVIVAL TIME (MST) of recipients ([2]; B-16, 25 ug/ml, 30 min): 52 days
- MEAN SURVIVAL TIME (MST) of recipients ([2]; B-16, 25 ug/ml, 60 min): 68 days
- MEAN SURVIVAL TIME (MST) of recipients ([2]; B-16, 25 ug/ml, 120 min): 65 days
- initial lag period between inoculation and appearance of palpable tumors ([2]; B-16, increasing dosages, 2 hr treatment): lengthened
- reduction of viable tumor cell population ([2]; B-16, inferred from LD100 of 100 viable cells): at least 99.9%
- tumor growth rates of untreated and treated cells ([2]; B-16, once graft established): identical
- pIC50 ([3]; 24 h, read-out: T.C.D.50): 5.62
- T.C.D.100 ([3]; L1210S, 24 hours exposure): 7.5 µM
- Percent Tumor Cell Survival ([4]; 5 ug/ml, pulse 1 hr): 88%
- Percent Tumor Cell Survival ([4]; 5 ug/ml, pulse 2 hr): 66%
- Percent Tumor Cell Survival ([4]; 5 ug/ml, pulse 4 hr): 79%
- Percent Tumor Cell Survival ([4]; 5 ug/ml, pulse .5 hr): 93%
- Percent Tumor Cell Survival ([4]; 10 ug/ml, pulse 1 hr): 68%
- Percent Tumor Cell Survival ([4]; 10 ug/ml, pulse 2 hr): 73%
- Percent Tumor Cell Survival ([4]; 10 ug/ml, pulse 4 hr): 63%
- Percent Tumor Cell Survival ([4]; 10 ug/ml, pulse .5 hr): 75%
- Percent Tumor Cell Survival ([4]; 25 ug/ml, pulse 1 hr): 60%
- Percent Tumor Cell Survival ([4]; 25 ug/ml, pulse 2 hr): 56%
- Percent Tumor Cell Survival ([4]; 25 ug/ml, pulse 4 hr): 52%
- Percent Tumor Cell Survival ([4]; 25 ug/ml, pulse .25 hr): 82%
- Percent Tumor Cell Survival ([4]; 25 ug/ml, pulse .5 hr): 67%
- reductions in tumor cell survival at initiation of in vitro cultures [4, 7]: 0-6%
- Percent Tumor Cell Survival ([4]; 50 ug/ml, pulse 1 hr): 48%
- Percent Tumor Cell Survival ([4]; 50 ug/ml, pulse .25 hr): 65%
- Percent Tumor Cell Survival ([4]; 50 ug/ml, pulse .5 hr): 62%
- Percent Tumor Cell Survival ([5]; 5 ug/ml, pulse 1 hr): 89%
- Percent Tumor Cell Survival ([5]; 5 ug/ml, pulse 2 hr): 77%
- Percent Tumor Cell Survival ([5]; 5 ug/ml, pulse 4 hr): 76%
- Percent Tumor Cell Survival ([5]; 5 ug/ml, pulse .5 hr): 94%
- Percent Tumor Cell Survival ([5]; 10 ug/ml, pulse 1 hr): 70%
- Percent Tumor Cell Survival ([5]; 10 ug/ml, pulse 2 hr): 64%
- Percent Tumor Cell Survival ([5]; 10 ug/ml, pulse 4 hr): 48%
- Percent Tumor Cell Survival ([5]; 10 ug/ml, pulse .25 hr): 68%
- Percent Tumor Cell Survival ([5]; 10 ug/ml, pulse .5 hr): 67%
- Percent Tumor Cell Survival ([5]; 25 ug/ml, pulse 1 hr): 51%
- Percent Tumor Cell Survival ([5]; 25 ug/ml, pulse 2 hr): 46%
- Percent Tumor Cell Survival ([5]; 25 ug/ml, pulse 4 hr): 44%
- Percent Tumor Cell Survival ([5]; 25 ug/ml, pulse .25 hr): 61%
- Percent Tumor Cell Survival ([5]; 25 ug/ml, pulse .5 hr): 37%
- reductions in tumor cell survival at initiation of in vitro cultures [5, 7]: 0-6%
- Percent Tumor Cell Survival ([5]; 50 ug/ml, pulse 1 hr): 41%
- Percent Tumor Cell Survival ([5]; 50 ug/ml, pulse .25 hr): 45%
- Percent Tumor Cell Survival ([5]; 50 ug/ml, pulse .5 hr): 32%
- protection of surviving hosts against second graft of 1000 untreated L-1210 cells [6]: did not confer protection

From patent US4740501A (priority 1985, dated 1988)
